This is an account of results in the NIST ThermoML archive (doi:10.1016/j.jct.2008.12.005).

± gives the expanded uncertainty stated by the source.

The first data set is described as follows: activity coefficient (dimensionless); of the first substance listed, at infinite dilution; xn = mol fraction of the nth substance listed. The conditions noted are these: 298.15 K; 101 kPa; Liquid; Chromatography; x1 = 0.
Take `c1ccsc1` [thiophene] + CC[S+](CC)CC.O=S(=O)([N-]S(=O)(=O)C(F)(F)F)C(F)(F)F: the activity coefficient worked out at 0.926 ± 0.059.
On the same count and under the same terms, then `C1CCOC1` [tetrahydrofuran] + CC[S+](CC)CC.O=S(=O)([N-]S(=O)(=O)C(F)(F)F)C(F)(F)F, with 0.788 ± 0.051; and `CCc1ccccc1` [ethylbenzene] + CC[S+](CC)CC.O=S(=O)([N-]S(=O)(=O)C(F)(F)F)C(F)(F)F, with 2.42 ± 0.16; and `C1CCCC1` [cyclopentane] + CC[S+](CC)CC.O=S(=O)([N-]S(=O)(=O)C(F)(F)F)C(F)(F)F, with 10.8 ± 0.7.
Still for that read-out and setting: then `C#CCCCCC` [1-heptyne] + CC[S+](CC)CC.O=S(=O)([N-]S(=O)(=O)C(F)(F)F)C(F)(F)F, with 5.34 ± 0.36.
Still for that read-out and setting: then `CCO` [ethanol] + CC[S+](CC)CC.O=S(=O)([N-]S(=O)(=O)C(F)(F)F)C(F)(F)F, with 2.15 ± 0.15; and `CO` [methanol] + CC[S+](CC)CC.O=S(=O)([N-]S(=O)(=O)C(F)(F)F)C(F)(F)F, with 1.62 ± 0.11.
`C#CCCC` [1-pentyne] + CC[S+](CC)CC.O=S(=O)([N-]S(=O)(=O)C(F)(F)F)C(F)(F)F: the activity coefficient was 2.52 ± 0.17.
On the same count and under the same terms, then `C1CCCCCCC1` [cyclooctane] + CC[S+](CC)CC.O=S(=O)([N-]S(=O)(=O)C(F)(F)F)C(F)(F)F, with 30.3 ± 2.1; and `C#CCCCC` [1-hexyne] + CC[S+](CC)CC.O=S(=O)([N-]S(=O)(=O)C(F)(F)F)C(F)(F)F, with 3.63 ± 0.25; and `CCCCCCC` [heptane] + CC[S+](CC)CC.O=S(=O)([N-]S(=O)(=O)C(F)(F)F)C(F)(F)F, with 40.4 ± 2.8.
Still for that read-out and setting: then `CCCCCCCCC` [nonane] + CC[S+](CC)CC.O=S(=O)([N-]S(=O)(=O)C(F)(F)F)C(F)(F)F, with 87.2 ± 6.
Still for that read-out and setting: then `CCCCCC` [hexane] + CC[S+](CC)CC.O=S(=O)([N-]S(=O)(=O)C(F)(F)F)C(F)(F)F, with 28.6 ± 2; and `C=CCCCC` [hex-1-ene] + CC[S+](CC)CC.O=S(=O)([N-]S(=O)(=O)C(F)(F)F)C(F)(F)F, with 12.5 ± 0.9.

Still in this data set, the particulars now being: 308.15 K; 101 kPa; Liquid; Chromatography; x1 = 0.
With `c1ccsc1` [thiophene] + CC[S+](CC)CC.O=S(=O)([N-]S(=O)(=O)C(F)(F)F)C(F)(F)F, the activity coefficient was found to be 0.935 ± 0.059.
Still for that read-out and setting: then `C1CCOC1` [tetrahydrofuran] + CC[S+](CC)CC.O=S(=O)([N-]S(=O)(=O)C(F)(F)F)C(F)(F)F, with 0.803 ± 0.052; and `CCc1ccccc1` [ethylbenzene] + CC[S+](CC)CC.O=S(=O)([N-]S(=O)(=O)C(F)(F)F)C(F)(F)F, with 2.43 ± 0.17; and `C1CCCC1` [cyclopentane] + CC[S+](CC)CC.O=S(=O)([N-]S(=O)(=O)C(F)(F)F)C(F)(F)F, with 10.1 ± 0.7.
On to `C#CCCCCC` [1-heptyne] + CC[S+](CC)CC.O=S(=O)([N-]S(=O)(=O)C(F)(F)F)C(F)(F)F, for which the activity coefficient was found to be 5.28 ± 0.36.
On to `CCO` [ethanol] + CC[S+](CC)CC.O=S(=O)([N-]S(=O)(=O)C(F)(F)F)C(F)(F)F, for which the activity coefficient was determined as 1.95 ± 0.13.
Same read-out and setting: then `CO` [methanol] + CC[S+](CC)CC.O=S(=O)([N-]S(=O)(=O)C(F)(F)F)C(F)(F)F, with 1.48 ± 0.1; and `C#CCCC` [1-pentyne] + CC[S+](CC)CC.O=S(=O)([N-]S(=O)(=O)C(F)(F)F)C(F)(F)F, with 2.52 ± 0.17; and `C1CCCCCCC1` [cyclooctane] + CC[S+](CC)CC.O=S(=O)([N-]S(=O)(=O)C(F)(F)F)C(F)(F)F, with 27.2 ± 1.9.
The same measure, in the same setting: then `C#CCCCC` [1-hexyne] + CC[S+](CC)CC.O=S(=O)([N-]S(=O)(=O)C(F)(F)F)C(F)(F)F, with 3.62 ± 0.25; and `CCCCCCC` [heptane] + CC[S+](CC)CC.O=S(=O)([N-]S(=O)(=O)C(F)(F)F)C(F)(F)F, with 36.9 ± 2.5.
Still for that read-out and setting: then `CCCCCCCCC` [nonane] + CC[S+](CC)CC.O=S(=O)([N-]S(=O)(=O)C(F)(F)F)C(F)(F)F, with 77.6 ± 5.3; and `CCCO` [propan-1-ol] + CC[S+](CC)CC.O=S(=O)([N-]S(=O)(=O)C(F)(F)F)C(F)(F)F, with 2.49 ± 0.17; and `CCCCCC` [hexane] + CC[S+](CC)CC.O=S(=O)([N-]S(=O)(=O)C(F)(F)F)C(F)(F)F, with 26.2 ± 1.8.
As for `C=CCCCC` [hex-1-ene] + CC[S+](CC)CC.O=S(=O)([N-]S(=O)(=O)C(F)(F)F)C(F)(F)F, the activity coefficient was determined as 11.8 ± 0.8.
On to `Cc1ccc(C)cc1` [1,4-dimethylbenzene] + CC[S+](CC)CC.O=S(=O)([N-]S(=O)(=O)C(F)(F)F)C(F)(F)F, for which the activity coefficient was determined as 2.27 ± 0.15.

The same data set, now with this note: 318.15 K; 101 kPa; Liquid; Chromatography; x1 = 0.
For `c1ccsc1` [thiophene] + CC[S+](CC)CC.O=S(=O)([N-]S(=O)(=O)C(F)(F)F)C(F)(F)F, the activity coefficient turned out to be 0.943 ± 0.059.
Still for that read-out and setting: then `C1CCOC1` [tetrahydrofuran] + CC[S+](CC)CC.O=S(=O)([N-]S(=O)(=O)C(F)(F)F)C(F)(F)F, with 0.82 ± 0.053; and `CCc1ccccc1` [ethylbenzene] + CC[S+](CC)CC.O=S(=O)([N-]S(=O)(=O)C(F)(F)F)C(F)(F)F, with 2.43 ± 0.17; and `C1CCCC1` [cyclopentane] + CC[S+](CC)CC.O=S(=O)([N-]S(=O)(=O)C(F)(F)F)C(F)(F)F, with 9.31 ± 0.64.
With `C#CCCCCC` [1-heptyne] + CC[S+](CC)CC.O=S(=O)([N-]S(=O)(=O)C(F)(F)F)C(F)(F)F, the activity coefficient stood at 5.21 ± 0.36.
On the same count and under the same terms, then `CCO` [ethanol] + CC[S+](CC)CC.O=S(=O)([N-]S(=O)(=O)C(F)(F)F)C(F)(F)F, with 1.77 ± 0.12; and `CO` [methanol] + CC[S+](CC)CC.O=S(=O)([N-]S(=O)(=O)C(F)(F)F)C(F)(F)F, with 1.35 ± 0.09.
With `C#CCCC` [1-pentyne] + CC[S+](CC)CC.O=S(=O)([N-]S(=O)(=O)C(F)(F)F)C(F)(F)F, the activity coefficient was determined as 2.53 ± 0.17.
Same read-out and setting: then `C1CCCCCCC1` [cyclooctane] + CC[S+](CC)CC.O=S(=O)([N-]S(=O)(=O)C(F)(F)F)C(F)(F)F, with 24.5 ± 1.7; and `C#CCCCC` [1-hexyne] + CC[S+](CC)CC.O=S(=O)([N-]S(=O)(=O)C(F)(F)F)C(F)(F)F, with 3.6 ± 0.25; and `CCCCCCC` [heptane] + CC[S+](CC)CC.O=S(=O)([N-]S(=O)(=O)C(F)(F)F)C(F)(F)F, with 33.5 ± 2.3.
Still for that read-out and setting: then `CCCCCCCCC` [nonane] + CC[S+](CC)CC.O=S(=O)([N-]S(=O)(=O)C(F)(F)F)C(F)(F)F, with 68.6 ± 4.7.
In the case of `CCCO` [propan-1-ol] + CC[S+](CC)CC.O=S(=O)([N-]S(=O)(=O)C(F)(F)F)C(F)(F)F, the activity coefficient came to 2.24 ± 0.15.
Still for that read-out and setting: then `CCCCCC` [hexane] + CC[S+](CC)CC.O=S(=O)([N-]S(=O)(=O)C(F)(F)F)C(F)(F)F, with 24 ± 1.6; and `C=CCCCC` [hex-1-ene] + CC[S+](CC)CC.O=S(=O)([N-]S(=O)(=O)C(F)(F)F)C(F)(F)F, with 11.3 ± 0.8; and `Cc1ccc(C)cc1` [1,4-dimethylbenzene] + CC[S+](CC)CC.O=S(=O)([N-]S(=O)(=O)C(F)(F)F)C(F)(F)F, with 2.3 ± 0.16.

The same data set, now with this note: 328.15 K; 101 kPa; Liquid; Chromatography; x1 = 0.
As for `c1ccsc1` [thiophene] + CC[S+](CC)CC.O=S(=O)([N-]S(=O)(=O)C(F)(F)F)C(F)(F)F, the activity coefficient stood at 0.951 ± 0.06.
The same measure, in the same setting: then `C1CCOC1` [tetrahydrofuran] + CC[S+](CC)CC.O=S(=O)([N-]S(=O)(=O)C(F)(F)F)C(F)(F)F, with 0.834 ± 0.054; and `CCc1ccccc1` [ethylbenzene] + CC[S+](CC)CC.O=S(=O)([N-]S(=O)(=O)C(F)(F)F)C(F)(F)F, with 2.44 ± 0.17.
The same measure, in the same setting: then `C1CCCC1` [cyclopentane] + CC[S+](CC)CC.O=S(=O)([N-]S(=O)(=O)C(F)(F)F)C(F)(F)F, with 8.72 ± 0.59; and `C#CCCCCC` [1-heptyne] + CC[S+](CC)CC.O=S(=O)([N-]S(=O)(=O)C(F)(F)F)C(F)(F)F, with 5.14 ± 0.35.
As for `CCO` [ethanol] + CC[S+](CC)CC.O=S(=O)([N-]S(=O)(=O)C(F)(F)F)C(F)(F)F, the activity coefficient came to 1.61 ± 0.11.
Still for that read-out and setting: then `CO` [methanol] + CC[S+](CC)CC.O=S(=O)([N-]S(=O)(=O)C(F)(F)F)C(F)(F)F, with 1.25 ± 0.08; and `C#CCCC` [1-pentyne] + CC[S+](CC)CC.O=S(=O)([N-]S(=O)(=O)C(F)(F)F)C(F)(F)F, with 2.54 ± 0.17.
As to `C1CCCCCCC1` [cyclooctane] + CC[S+](CC)CC.O=S(=O)([N-]S(=O)(=O)C(F)(F)F)C(F)(F)F, the activity coefficient was 22.4 ± 1.5.
As to `C#CCCCC` [1-hexyne] + CC[S+](CC)CC.O=S(=O)([N-]S(=O)(=O)C(F)(F)F)C(F)(F)F, the activity coefficient was found to be 3.58 ± 0.24.
The same measure, in the same setting: then `CCCCCCC` [heptane] + CC[S+](CC)CC.O=S(=O)([N-]S(=O)(=O)C(F)(F)F)C(F)(F)F, with 30.5 ± 2.1.
On the same count and under the same terms, then `CCCCCCCCC` [nonane] + CC[S+](CC)CC.O=S(=O)([N-]S(=O)(=O)C(F)(F)F)C(F)(F)F, with 61.8 ± 4.2; and `CCCO` [propan-1-ol] + CC[S+](CC)CC.O=S(=O)([N-]S(=O)(=O)C(F)(F)F)C(F)(F)F, with 2.04 ± 0.14; and `CCCCCC` [hexane] + CC[S+](CC)CC.O=S(=O)([N-]S(=O)(=O)C(F)(F)F)C(F)(F)F, with 22.1 ± 1.5.
The same measure, in the same setting: then `C=CCCCC` [hex-1-ene] + CC[S+](CC)CC.O=S(=O)([N-]S(=O)(=O)C(F)(F)F)C(F)(F)F, with 10.6 ± 0.7; and `Cc1ccc(C)cc1` [1,4-dimethylbenzene] + CC[S+](CC)CC.O=S(=O)([N-]S(=O)(=O)C(F)(F)F)C(F)(F)F, with 2.32 ± 0.16.

Staying with this data set, now noted: 338.15 K; 101 kPa; Liquid; Chromatography; x1 = 0.
As for `c1ccsc1` [thiophene] + CC[S+](CC)CC.O=S(=O)([N-]S(=O)(=O)C(F)(F)F)C(F)(F)F, the activity coefficient was 0.958 ± 0.06.
